pIC50: −log10 of the molar value.

In the test the target is Protein Tat (Human immunodeficiency virus type 1 group M subtype B (isolate HXB2)) (UniProt P04608). The test is described as follows: inhibitors of Tat binding to TAR RNA, dose response, counter-screen for Vif-APOBEC3G degradation inhibitor project, biochemical, fluorescence polarization, FAM-labeled TAR RNA (AID 1117361). Background: Counterscreens check selectivity or assay interference.
Chain of Protein Tat (Human immunodeficiency virus type 1 group M subtype B (isolate HXB2)) (P04608 whole entry, looked up): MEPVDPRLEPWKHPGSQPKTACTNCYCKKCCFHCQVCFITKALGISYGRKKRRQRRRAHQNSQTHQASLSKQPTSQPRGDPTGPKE
In general, pIC50 refers to the IC50 on a negative log10 scale, so that one unit is a factor of ten. On to `Cc1ccccc1NC(=O)c1c(C)[nH]c(=S)c(C#N)c1-c1ccco1`, for which the pIC50 was 5.05.
With `O=C1C=CC(=O)c2c(O)c(CO)c(CO)c(O)c21` the figure was 5.46.
To `COc1ccc(NC(=O)/C(C#N)=C\c2ccc(Br)o2)cc1` belongs 4.22; to `Cc1cc(C)cc(Nc2ncc3c(n2)CC(c2ccco2)CC3=O)c1` (centres undefined), 4.37.
With `O=C(NCCc1ccccc1)c1ccc2nc(-c3ccco3)c(-c3ccco3)nc2c1` the figure was 4.48.
As to `C/C(=N\Nc1ccc([N+](=O)[O-])cc1[N+](=O)[O-])c1cc2c(ccc3ccccc32)oc1=O`, the pIC50 was 4.81.
With `COC(=O)C1=C(C)NC(=O)/C1=C\c1cc(C)n(-c2ccccc2C)c1C` the figure was 4.54; with `Cc1cc2ccccc2n1CCNC(=O)C1CCCCC1`, 4.63.
To `COC(=O)CSc1nnc(CNC(=O)Cc2ccccc2)n1C` belongs 5.84; to `O=C(CCCN1C(=O)/C(=C\c2ccco2)SC1=S)Nc1cccc2ccccc12`, 5.10.
Regarding `CCOC(=O)c1sc2nc(CC(=O)OC)nc(NCc3ccco3)c2c1C`, the pIC50 was 4.79.
To `CN(C(=O)COC(=O)c1cc(-c2ccco2)nc2ccccc12)C1CCS(=O)(=O)C1` (centres undefined) belongs 5.20.
With `CC1CCC/C(=C\Nc2ccc(C(=O)O)c(O)c2)C1=O` (centres undefined) the figure was 5.27; with `O=C(c1cc(-c2ccco2)on1)N1CCN(c2ccccc2)CC1`, 4.73.
To `O=C1CC(/C=C/c2ccco2)=Nc2ccccc2N1` belongs 5.17; to `O=C(NCCc1c[nH]c2ccccc12)c1ccc(S(=O)(=O)NCc2ccco2)cc1`, 4.32; to `CC(=O)NC1=NC(=O)/C(=C/c2cc(C)n(-c3cccc(C(=O)O)c3)c2C)S1`, 4.53.
Consider `CCCC(=O)N(CCc1ccc(OC)cc1)Cc1nc2ccccc2c(=O)[nH]1`, for which the negative logarithm of the IC50 (pIC50) was 4.14.
With `CC1CC(=O)c2c(cc3c(-c4c(O)cc(O)c5c(O)c6c(cc45)OC(C)CC6=O)c(O)cc(O)c3c2O)O1` (centres undefined) the figure was 5.12.
To `Cc1cc(C)c(C(=O)/C=C/c2ccco2)c(=O)[nH]1` belongs 4.92; to `COc1ccccc1N1C(=O)NC(=O)/C(=C/c2ccc([N+](=O)[O-])s2)C1=O`, 4.76; to `CCOC(=O)c1c(N)sc(=S)c2c1CCC2`, 4.28.
`O=[N+]([O-])c1cc(Br)c(O)c(C=Nc2ccc(N3CCOCC3)cc2)c1`: the pIC50 was 4.11.
On to `CCOC(=O)N1CCN(C(=O)c2ccc3c(SCC(=O)O)c4c(nc3c2)CCC4)CC1`, for which the pIC50 is 5.12.
Turning to `CN(C)c1ccc(N2C(=O)CSC2=S)cc1`, the pIC50 is 4.26.
With `Cn1cccc1/C=C1\CCC/C(=C\c2cccn2C)C1=O` the figure was 4.77.
To `COc1cccc(-n2c(Cc3cc(=O)[nH]c(=O)[nH]3)nnc2SCC(=O)NC2CCCC2)c1` belongs 4.99.
To `COC(=O)Cn1c(CCC(=O)O)ccc1-c1ccccc1` belongs 4.37.
On to `COC/C=C/C1=CC2=CC(=O)C(C)(OC(=O)c3cnc4ccccc4n3)C(=O)C2=CN1c1ccccc1` (centres undefined), for which the pIC50 is 4.65.
To `CCN(C(=O)c1coc(=O)c(Br)c1)c1ccc2c(c1)OCO2` belongs 5.93; to `COC(C(=O)C(O)C(C)O)C1Cc2cc3cc(OC4CC(OC5CC(O)C(O)C(C)O5)C(O)C(C)O4)c(C)c(O)c3c(O)c2C(=O)C1OC1CC(OC2CC(OC3CC(O)C(OC)C(C)O3)C(O)C(C)O2)C(O)C(C)O1` (centres undefined), 4.55.
With `COC(=O)c1cnn2c(C(F)(F)F)cc(-c3ccco3)nc12` the figure was 4.17.
With `Nc1ncnc2oc(-c3ccco3)c(-c3ccco3)c12` the figure was 5.47; with `CCOC(=O)c1cc2cc(F)ccc2nc1C`, 5.20.
Turning to `COc1ccccc1NCCC(=O)OCC(=O)NCc1ccco1`, the pIC50 is 4.24.
For `O=C1NC(=S)S/C1=C\c1ccc(SCc2ccco2)o1`, the pIC50 was 6.03.
Turning to `O=c1ccc2c(-c3ccccc3S(=O)(=O)O)c3ccc(O)c(O)c3oc-2c1O`, the pIC50 is 5.32.
To `COC(=O)c1ccc(COc2ccc(/C=N/Nc3cccc(C(=O)O)c3)cc2)cc1` belongs 4.20.
To `NC(=O)c1cc(N)ccc1N1CCCC1` belongs 5.66.
To `COc1cc(CNCCc2ccc(F)cc2)ccc1OCc1ccc(Cl)nc1` belongs 5.01.
Consider `C=CCn1c(SCC(=O)NCCCC)nc2scc(-c3ccco3)c2c1=O`, for which the pIC50 is 4.75.
To `CCOC(=O)C(=O)NCc1ccc(/C=C2/N=C(C)C(C(=O)OCC)=C2O)o1` belongs 5.33; to `O=C(CCCN1C(=O)/C(=C\c2ccco2)SC1=S)Nc1ccc2ccccc2c1`, 4.32.
With `Cc1ccc(C)n1-c1sccc1C(=O)O` the figure was 6.04; with `Oc1ccc(/C=N/NC2=NCCCCC2)c(O)c1`, 4.60.
To `CC(=O)c1ccc2c(c1)C1C=CCC1C(c1ccncc1)N2` (centres undefined) belongs 4.44; to `CCN(CC)c1ccc2c(c1)CCCN2`, 5.54.
Regarding `O=C(NCCCO)c1ccc2nc(-c3ccco3)c(-c3ccco3)nc2c1`, the pIC50 is 5.45.
To `N#Cc1c(-c2ccco2)c2c([nH]c1=S)CCCC2` belongs 5.08.
For the compound `O=c1[nH]nc(CNc2ccc(O)cc2)c2ccccc12`, the pIC50 was 4.47.
To `CC(/C=C1\SC(=S)N(CCCC(=O)Nc2ccc(C(=O)O)c(O)c2)C1=O)=C\c1ccccc1` belongs 4.58; to `O=C1CC(SC(=S)C2CCCC2=O)C(=O)N1` (centres undefined), 5.49.
To `O=C1NC(=O)N(Cc2ccc(F)cc2)C(=O)/C1=C\C=C\c1ccco1` belongs 4.37.
With `Cc1cccc(N/N=C/c2ccc(O)c(O)c2O)c1` the figure was 4.44.
On to `O=C1c2cccnc2C(Nc2ccccc2)N1Cc1ccco1` (centres undefined), for which the negative-log IC50 (pIC50) is 4.10.
`Cc1cc(C(=O)O)ccc1-n1c(C)ccc1C`: the pIC50 is 5.24.
For `CC(C)CNC1=CC(=O)CC(c2ccco2)C1` (centres undefined), the pIC50 was 4.51.
Consider `Oc1ccc(NCc2ccccc2OCc2ccccc2)cc1`, for which the pIC50 was 4.29.
To `N#CC(C#N)=Cc1cccn1-c1ccc(C(=O)O)cc1` belongs 4.48; to `CN(C)c1ccc(O)c2c1CC1CC3[C@@H](N(C)C)C(=O)C(C(N)=O)=C(O)[C@]3(O)C(=O)C1=C2O` (some centres undefined), 5.21; to `CCN1CCc2c(C#N)c(NCc3ccccc3)nc(N(CC)CC)c2C1`, 4.23.
With `CCOc1ccc(NCC2CCOC(C)(C)C2)cc1` (centres undefined) the figure was 4.19; with `CCC1=NN2C(=N)/C(=C\c3ccc(SCc4ccco4)o3)C(=O)N=C2S1`, 4.20.
With `O=C1N=C(N2CCN(c3ccccc3)CC2)S/C1=C\c1ccco1` the figure was 4.93; with `O=C(O)c1cccc2cccc(-c3c4ccc(=O)c(O)c-4oc4c(O)c(O)ccc34)c12`, 5.47; with `CN(C)c1cc(Cl)c2nonc2c1N`, 4.06.
Take `Cn1cnnc1SC/C(O)=C(\C#N)c1nc2ccccc2[nH]1`: the pIC50 is 4.43.
To `Cc1oc(-c2ccc(Cl)cc2)cc1-c1nn2c(-c3ccoc3C)nnc2s1` belongs 5.54.
With `COCCNC(=O)COC(=O)c1[nH]c(C)c(C(C)=O)c1C` the figure was 4.45.
To `COc1cc(C(=O)NCc2nnc(SCC(=O)Nc3nc4ccc(C)cc4s3)o2)cc(OC)c1OC` belongs 4.45; to `Cc1cc(C(=O)Nc2sc3c(c2C#N)CCCCC3)cs1`, 4.63.
Take `O=S(=O)(c1ccc(OCC(O)CN2CCC(Cc3ccccc3)CC2)cc1)N1CCOCC1` (centres undefined): the pIC50 is 4.99.
With `CC1=C(C#N)C(=O)N(C2CCS(=O)(=O)C2)C(=O)/C1=C\c1ccc(C)o1` (centres undefined) the figure was 5.87; with `O=C1CCC/C(=N\NC(=O)c2ccc(COc3cccc4cccnc34)cc2)C1`, 4.08.
With `CC1Cc2ccccc2N1Cc1cc(=O)n2ccsc2n1` (centres undefined) the figure was 5.00; with `Nc1cccc2c(O)cc(S(=O)(=O)O)cc12`, 4.71; with `C=C(C)C(=O)Nc1cccc(C2=NOC3(C2)C[C@@H](C(N)=O)N(C(=O)/C=C/CC)C3)c1` (some centres undefined), 4.61.
With `COc1ccc(O)c(N)c1` the figure was 5.26; with `c1cncc(-c2nnc3sc(-c4ccco4)nn23)c1`, 4.19.
Take `CCCCC1=CC2=C(c3ccco3)C(=O)C(C)(OC(=O)c3ccc(OC)cc3)C(=O)C2=CN1CCCCO` (centres undefined): the pIC50 was 4.53.
To `Oc1ccccc1/C=N/c1c(-c2ccco2)nc2ccccn12` belongs 5.53; to `CCN(CC)S(=O)(=O)c1cccc(C(=O)N/N=C/c2ccc(O)c(O)c2O)c1`, 4.03; to `N#Cc1c(NC(=O)CSc2ncnc3sccc23)oc(-c2ccco2)c1-c1ccco1`, 5.60.
In the case of `O=c1c2cc(N3CCOCC3)ccc2[nH]c(=S)n1Cc1ccco1`, the pIC50 is 4.41.
With `CCOC(=O)C1CCN(C(c2cccs2)c2sc3nc(C)nn3c2O)CC1` (centres undefined) the figure was 5.71; with `CCOC(=O)N1CC=C2C(C#N)=C(N)C(C#N)(C#N)[C@H](c3cccs3)[C@H]2C1`, 4.82.
To `CCCCC1=CC2=CC(=O)C(C)(OC(=O)C3CCCC3)C(=O)C2=CO1` (centres undefined) belongs 4.27; to `COc1cc2[nH]c(Cl)c([N+](=O)[O-])c2cc1OC`, 4.61.
To `CCOC(=O)C1=C(N)n2c(s/c(=C\c3ccco3)c2=O)=C(C(=O)OC(C)C)C1c1ccco1` (centres undefined) belongs 5.46.
As for `Cc1cccc(NC(=O)CSc2nnc(-c3ccco3)c(-c3ccco3)n2)c1C`, the negative-log IC50 (pIC50) was 4.82.
To `COc1ccc(OC)c(S(=O)(=O)Nc2ccc(O)c3ccccc23)c1` belongs 4.08.
With `O=C(NCCO)c1ccc2nc(-c3ccco3)c(-c3ccco3)nc2c1` the figure was 5.13; with `Cc1onc(-c2ccccc2Cl)c1C(=O)NCc1ccco1`, 5.18; with `CC(=C\c1ccco1)/C=C1/SC(=S)N(CC(=O)O)C1=O`, 5.06.
With `O=C(N/N=C/c1ccc(O)c(O)c1O)/C(=C/c1ccc([N+](=O)[O-])cc1)NC(=O)c1ccccc1` the figure was 5.14; with `O=C(NC1CCCC1)c1ccc2nc(-c3ccco3)c(-c3ccco3)nc2c1`, 5.68.
As for `CN1c2ccsc2C(O)=C(C(=S)Nc2ccc(F)c(Cl)c2)S1(=O)=O`, the pIC50 is 5.27.
Consider `Oc1ccc(NCc2cccc(OCc3ccccc3)c2)cc1`, for which the pIC50 was 4.18.
With `CCN(CC)c1ccc2oc(=O)c(C)nc2c1` the figure was 4.69.
